{"source": "patent US20260240865A1", "about": "“HARNESSING IKZF:BETA-CATENIN COMPLEXES IN THE TREATMENT OF LYMPHOCYTE ASSOCIATED DISEASES OR CONDITIONS” (Yale University, priority 2022, published 2026)", "key": {"[1]": {"details": "cited from earlier work"}, "[2]": {"tested_on": "B-lymphoid leukemia and lymphoma cells", "assay": "Cell viability assay (Cell Titer Glo 2.0) with GSK3β inhibitors", "assay_type": "cell-based, human", "protocol": "Forty thousand patient-derived pre-B ALL cells or twenty thousand leukemia/lymphoma cell lines or ten thousand colon/lung cancer cells were seed in a volume of 80 μl in complete growth medium on 96-well plate. GSK3β3 inhibitors were added at the indicated concentration in a total volume of 100 μl. After treatment for 3 days, Cell Titer Glo 2.0 assays (Promega) were performed according to the manufacturer's instructions. Relative viability was calculated by measuring the luminescence value and normalizing it to baseline values of untreated cells.\n(§1) Data are shown as mean±s.d. unless stated. Statistical analysis was performed by GraphPad Prism 7 (GraphPad Software Inc.) using unpaired two-tailed t test or log-rank test as indicated in figure legends. Significance was considered at P<0.05. Kaplan-Meier survival analysis was used to estimate OS with GraphPad Prism 7. The investigators were not blinded to allocation during experiments and outcome assessment. Experiments were repeated to ensure reproducibility of the observations."}, "β-catenin": {"tested_on": "β-catenin", "assay": "Western blot of colonies from MDS-derived CD34+ GFP+ progenitor cells", "assay_type": "cell-based, human", "details": "large colonies after 12 days", "protocol": "(§2) Cells were washed twice with ice-cold PBS and were lysed in CelLytic buffer (Sigma-Aldrich) supplemented with 1% protease inhibitor cocktail (Roche Diagnostics), 1% phosphatase inhibitor cocktail (EMD Millipore) and 1 mM PMSF (CST) on ice. 10-20 μg of cell lysates were separated on precast gels (Bio-Rad) and transferred on nitrocellulose membranes (Bio-Rad). After blocking for an hour in TBS-T with 2% BSA, membranes were probed with the appropriate primary antibodies listed in Table 6. Membranes were incubated with alkaline-phosphatase conjugated secondary antibodies (Invitrogen) and analyzed with Chemi Doc™ MP Imaging System (Bio-Rad). For fractionation experiment Nuclear and Cytoplasmic Extraction Reagent (Thermo Scientific) was used according to manufacturer's instructions.\nFor colony forming assays, 10,000 mouse BCR-ABL1 or NRAS^G12D were grown on MethoCult medium (M3231 or M3630 (with IL-7) respectively, StemCell Technologies) in 3-cm diameter dishes with an extra dish filled with water to prevent evaporation. […] For all colony forming experiments, colonies were imaged and counted using GelCount (Oxford Optronix) and 7-14 days after plating.\nNon-targeted and targeted CD34^+ GFP^+ cells were stimulated in the presence of human cytokines and colony forming assays were performed. Large colonies were analyzed by Western blot after 12 days."}, "[3]": {"tested_on": "refractory B-ALL PDX (LAX2)", "assay": "In vivo treatment of NSG mice bearing refractory B-ALL patient-derived xenografts", "protocol": "Patient derived BCR-ABL1 ALL were labeled with firefly luciferase and selected by 25 μg ml^−1 blasticidin. 1 million PDX cells pre-treated with LY2090314 (10 μg ml^−1) or vehicle control for four hours. Cells were washed twice and then injected via the tail vein into sublethally irradiated (190 cGy) NSG mice (8-12 week-old, female). LY2090314 or vehicle control (dissolved in 5% DMSO, 45% PEG300 and PBS) were administered intraperitoneally at dose of 12.5 mg kg^−1 body weight twice every day for 20 times. The in vivo expansion and leukemia burden were monitored by luciferase bioimaging (Lago X; Accela). Briefly, D-luciferin (Promega) was dissolved in PBS and injected intraperitoneally at a dose of 2.5 mg per mouse 15 min before measuring luminescent. All mice were anesthetized by 5% isoflurane and continued during detection of light emission with 2% isoflurane introduced through a nose cone. When the mice get the signs of leukemia (hunched back, weight loss and inability to move), they were euthanized. Bone marrow and spleen were collected and flow cytometry analysis was performed to check leukemia engraftment.\nas §1"}, "[4]": {"tested_on": "β-catenin and MYC protein levels in B-ALL cells", "assay": "Western blot of β-catenin and MYC after GSK3β inhibitor treatment", "assay_type": "cell-based, human", "protocol": "as §2"}, "[5]": {"tested_on": "B-lymphoid leukemia and lymphoma cells", "assay": "Cell viability assay (Cell Titer Glo 2.0) with GSK3β inhibitors", "assay_type": "cell-based, human", "remark": "listed apart in the source"}, "autoreactive B-cells": {"tested_on": "autoreactive B-cells", "assay": "Genetic mouse models for SLE and RA treated with GSK3β inhibitor", "assay_type": "in vivo", "details": "4 injections i.p., 20 mg/kg, once full-blown disease has developed", "from_the_text": "β-catenin activation in mouse models for SLE. As mouse models for SLE, lupus-prone B6.Sle1.Yaa mice will be studied, to be crossed on the B6Mb1^+/Crex Ctnnb1^ex3fl/fl model for B-cell-specific accumulation of β-catenin (FIG. 25). B6.Sle1.Yaa mice only require one backcross then intercross for Sle1 homozygosity, a large locus on chromosome 1 that promotes lupus susceptibility. One caveat of the B6.Sle1.Yaa model is that these are male mice, by contrast to female-dominant lupus in patients, since disease penetrance requires a second copy of Tlr7 on the Y chromosome (the Yaa allele). The B6.Sle1.Yaa faithfully replicates these outcomes as observed in other lupus-prone strains, including female predominant strains such as NZB/WF1 and MRL/1pr, or single gene models.\nβ-catenin activation in mouse models for RA. For collagen-induced arthritis (CIA) as a model for RA, disease is modeled on a B6 background with the B6 Mbl^+/Cre×Ctnnb1^ex3fl/fl allele using chicken type II collagen as an immunogen. […] Both models of inflammatory synovitis have been established, CIA induced in DBA1 and B6. The colonies are readily available for analyzing outcomes in these animals, including detailed analysis of B- and T-cell responses, and degree of synovitis and joint damage. […]"}}, "note": "“Also recorded” adds a separate entry of the source."}
{"compound": "O=C1NC(=O)C(c2cnc3ccccn23)=C1c1cn2c3c(cc(F)cc13)CN(C(=O)N1CCCCC1)CC2", "note": "[LY2090314]", "values": [{"measurement": "adverse effects in clinical trials", "setting": "[1]; Cmax micromolar", "value": "lymphopenia"}, {"measurement": "Outcome: clinical responses", "setting": "[1]; Phase 1 and 2", "value": "No clinical responses"}, {"measurement": "Outcome: safety", "setting": "[1]; Phase 1 and 2", "value": "Phase 1 and 2, favorable safety"}, {"measurement": "Outcome: MTD", "setting": "[1]; i.v.", "value": 80, "unit": "mg"}, {"measurement": "safety and tolerability / PK/PD profile in clinical trials", "setting": "[1]; micromolar plasma concentrations (Cmax)", "value": "demonstrated safety and tolerability at micromolar plasma concentrations"}, {"measurement": "responses in B-ALL PDX with vs without IKZF1-deletion", "setting": "[2]; 10 patient-derived xenografts, 5 with IKZF1-deletion", "value": "no significant differences"}, {"measurement": "drug-responses in a larger panel of cell lines and PDX", "setting": "[2]; B-ALL, B-cell lymphoma, myeloid leukemia, colon, lung cancer, 0 up to 200 nM, 3 days", "value": "profound responses in B-ALL and B-cell lymphoma cells in the absence of significant effects on myeloid and epithelial tumor cells"}, {"measurement": "selective cell death / drug response", "setting": "[2]; B-lymphoid vs myeloid and epithelial cells (PDX2, BV173, LAX2 vs THP1, SW620, H82), 3 days", "value": "induced cell death at low nanomolar concentrations selectively in B-lymphoid but not myeloid and epithelial cells; also recorded: B-cell selective activity at low nanomolar concentrations"}, {"measurement": "responses in B-ALL PDX from chemotherapy-sensitive vs refractory/relapsed patients", "setting": "[2]; FIG. 7D", "value": "did not affect responses"}, {"measurement": "sensitivity of B-ALL cells with deletion of CTNNB1", "setting": "[2]; human B-ALL (BV173) gCTNNB1 vs gNT clones, 3 days", "value": "near-complete resistance"}, {"measurement": "β-catenin accumulation in non-targeted control colonies", "setting": "β-catenin", "value": "induced accumulation of β-catenin in all 7 non-targeted control colonies"}, {"measurement": "leukemia burden (bioluminescence imaging)", "setting": "[3]; NSG mice with refractory B-ALL PDX, intraperitoneal, single agent vs vehicle", "value": "substantially reduced leukemia burden"}, {"measurement": "overall survival", "setting": "[3]; NSG mice with refractory B-ALL PDX, intraperitoneal, P=6.5E-05, n=9", "value": "significantly extended overall survival"}, {"measurement": "leukemia-initiation potential", "setting": "[3]; limiting doses (100-2,500 cells) of B-ALL PDX in transplant recipient mice", "value": "reduced the leukemia-initiation potential"}, {"measurement": "weight loss / dose-limiting toxicity", "setting": "[3]; treated NSG mice", "value": "did not show significant weight loss or other dose-limiting toxicity"}, {"measurement": "β-catenin accumulation and MYC suppression", "setting": "[4]; B-ALL (PDX2) cells, 16 hours, FIGS. 7A, 7C, 18C", "value": "induced massive accumulation of β-catenin in parallel with acute suppression of MYC"}, {"measurement": "MYC suppression in B-ALL cells with deletion of CTNNB1", "setting": "[4]; BV173, 20 nM, 16 hours", "value": "prevented suppression of MYC"}, {"measurement": "β-catenin accumulation and MYC suppression in B-cell vs colon and lung cell lines", "setting": "[4]; pre-B cell and mature B-cell lines, colon and lung cancer cell lines, FIG. 28A", "value": "induced rapid accumulation of β-catenin protein and suppression of MYC in Ikaros-expressing B-cell lines but not colon and lung cell lines"}, {"measurement": "IC50 in epithelial and myeloid cancer cells relative to B-ALL", "setting": "[5]; 343 epithelial cancer cell lines (Prism Drug Repurposing Secondary Screen) vs B-ALL cell lines", "value": 236, "unit": "fold"}, {"measurement": "IC50 in epithelial and myeloid cancer cells relative to B-cell lymphoma", "setting": "[5]; 343 epithelial cancer cell lines (Prism Drug Repurposing Secondary Screen) vs B-cell lymphoma cell lines", "value": 92, "unit": "fold"}, {"measurement": "disease outcome in established SLE and RA", "setting": "autoreactive B-cells", "value": "induce disease remission"}]}
